Laboratory results reported in patent US7935724B2, “Thiophene and benzothiophene hydroxamic acid derivatives” (Merck HDAC Research, LLC, priority 2003, dated 2011).
Read-outs that look alike come from different tables or passages of the source.

How the values were obtained:
[1] = molecular target: T1, histone deacetylase, subtype 1 (HDAC1) (Homo sapiens, UniProt Q13547); experiment: HDAC1-Flag assay (in vitro deacetylation assay); type: biochemical; settings: concentration for 50% inhibition of deacetylation, substrate at Km, unit inferred, text gives nm, read-out: HDAC Inhibition
T1 construct: Flag; made in house
Method: Novel compounds were tested for their ability to inhibit histone deacetylase, subtype 1 (HDAC1) using an in vitro deacetylation assay. The enzyme source for this assay was an epitope-tagged human HDAC1 complex immuno-purified from stably expressing mammalian cells. The substrate consisted of a commercial product containing an acetylated lysine side chain (BIOMOL Research Laboratories, Inc., Plymouth Meeting, Pa.). Upon deacetylation of the substrate by incubation with the purified HDAC1 complex, a fluorophore is produced that is directly proportional to the level of deacetylation.

[2] = system: murine erythroleukemia cell line SC9; experiment: MTS assay (Cell Titer 96 Aqueous One Solution Cell Proliferation Assay); type: cell-based; settings: unit inferred, unit nm
Method: The novel compounds of the present invention were tested for their ability to inhibit proliferation of the murine erythroleukemia cell line SC9.
The MTS assay, also referred to as the Cell Titer 96 Aqueous One Solution Cell Proliferation Assay, is a calorimetric method for determining the number of viable cells in proliferation, cytotoxicity or chemosensitivity assays. The MTS reagent contains a novel tetrazolium compound [3-(4,5-dimethylthiazol-2-yl)-5-(3-carboxymethoxyphenyl)-2-(4-sulfophenyl)-2H-tetrazolium, inner salt] and electron coupling reagent (phenazine ethosulfate;PES). Murine erythroleukemia cells (SC-9) were incubated with vehicle or increasing concentrations of compound for 48 hours. Cell proliferation was quantitated by adding a small amount of the MTS reagent directly to culture wells, incubating for 1-4 hours and then recording the absorbance at 490 nm with a 96-well plate reader. The quantity of formazan product, as measured by […] absorbance, is directly proportional to the number of living cells in culture.

[3] = Table 1, benzothiophene backbone
[4] = Mus musculus, SC9, 48 h, Table 3, concentration inhibiting proliferation of SC9 cells
[5] = Table 3, concentration inhibiting proliferation of SC9 cells, 48 hours

T1 sequence (Q13547 whole entry): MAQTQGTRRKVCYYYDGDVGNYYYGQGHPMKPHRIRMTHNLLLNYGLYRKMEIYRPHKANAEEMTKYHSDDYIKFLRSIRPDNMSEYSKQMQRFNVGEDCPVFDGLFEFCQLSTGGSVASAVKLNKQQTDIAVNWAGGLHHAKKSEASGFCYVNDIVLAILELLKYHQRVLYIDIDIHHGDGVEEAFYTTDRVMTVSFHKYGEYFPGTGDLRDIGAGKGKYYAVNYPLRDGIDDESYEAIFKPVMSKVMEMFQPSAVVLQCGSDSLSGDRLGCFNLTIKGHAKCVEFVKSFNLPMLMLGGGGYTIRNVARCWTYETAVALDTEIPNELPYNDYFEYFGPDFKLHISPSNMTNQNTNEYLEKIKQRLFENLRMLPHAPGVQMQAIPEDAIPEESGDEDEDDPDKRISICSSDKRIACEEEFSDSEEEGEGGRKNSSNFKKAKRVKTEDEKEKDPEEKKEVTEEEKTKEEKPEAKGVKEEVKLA

Structure (SMILES) | IC50 [1, 3] [nM] | IC50 [2, 4] [nM] | IC50 ([1]; Table 2, thiophene backbone) [nM] | IC50 [2, 5] [nM]
O=C(Cc1ccccc1)Nc1ccc2cc(C(=O)NO)sc2c1 [Compound 6] | 11.5 ± 2.1 | 250 ± 57.2 | – | –
O=C(NO)c1cc2ccc(NS(=O)(=O)c3cccc4ccccc34)cc2s1 [Compound 13] | 26 ± 1.4 | 441 | – | –
O=C(NO)c1cc2ccc(NS(=O)(=O)c3ccc4ccccc4c3)cc2s1 [Compound 14] | 21.5 ± 3.5 | 917 | – | –
O=C(NO)c1cc2cc(NC(=O)c3cccc4ccccc34)ccc2s1 [Compound 25] | 140 ± 14.1 | 545 | – | –
O=C(NO)c1cc2ccc(NC(=O)C(c3ccccc3)c3ccccc3)cc2s1 [Compound 28] | 79.5 ± 0.7 | 696 | – | –
O=C(NO)c1cc2ccc(NC(=O)c3cccc4ccccc34)cc2s1 [Compound 33] | 79 ± 11.3 | 785 | – | –
O=C(Nc1ccc2sc(C(=O)NO)cc2c1)OCc1ccccc1 [Compound 36] | 119 | 717 | – | –
O=C(NO)c1cc2cc(NC(=O)C(c3ccccc3)c3ccccc3)ccc2s1 [Compound 39] | 189 ± 4.9 | 666 | – | –
O=C(Cc1ccccc1)Nc1ccc(C(=O)NO)s1 [Compound 59] | – | 642 | 63.5 ± 7.7 | –
CCC(C(=O)Nc1ccc2sc(C(=O)NO)cc2c1)c1ccccc1 (centres unmarked) [Compound 86] | 92.5 ± 23.3 | 836 ± 28.9 | – | –
O=C(Cc1ccc(Cl)cc1)Nc1ccc2cc(C(=O)NO)sc2c1 [Compound 88] | 19 ± 5.6 | 238 | – | –
COc1ccc(CC(=O)Nc2ccc3cc(C(=O)NO)sc3c2)cc1 [Compound 89] | 19.5 ± 0.7 | 205 ± 37.5 | – | –
O=C(CN1CCC(Cc2ccccc2)CC1)Nc1ccc2cc(C(=O)NO)sc2c1 [Compound 90] | 99.5 ± 37.4 | 704 ± 96.1 | – | –
O=C(CN1CCN(C(=O)OCc2ccccc2)CC1)Nc1ccc2cc(C(=O)NO)sc2c1 [Compound 91] | 178 ± 55.8 | 899 | – | –
O=C(CN(Cc1ccccc1)Cc1ccccc1)Nc1ccc2cc(C(=O)NO)sc2c1 [Compound 93] | 316 ± 56.5 | 751 | – | –
CCC(C(=O)Nc1ccc2cc(C(=O)NO)sc2c1)c1ccccc1 (centres unmarked) [Compound 98] | 41.5 ± 2.1 | – | – | 225 ± 26.7
O=C(NO)c1cc2cc(CNCc3ccccc3)ccc2s1 [Compound 99] | 144 ± 53 | 474 ± 65.7 | – | –
COc1cccc(N2CCN(CC(=O)Nc3ccc4cc(C(=O)NO)sc4c3)CC2)c1 [Compound 100] | 45 ± 5.6 | 519 ± 65.7 | – | –
O=C(CN1CCN(c2ncccn2)CC1)Nc1ccc2cc(C(=O)NO)sc2c1 [Compound 101] | 59 ± 7 | 830 ± 393 | – | –
CN(C(=O)Cc1ccccc1)c1ccc2cc(C(=O)NO)sc2c1 [Compound 106] | 74.5 ± 17.6 | 537 ± 124 | – | –
COc1ccccc1N1CCN(CC(=O)Nc2ccc3cc(C(=O)NO)sc3c2)CC1 [Compound 107] | 79 ± 5.6 | 309 | – | –
O=C(CN1CCN(c2ccccn2)CC1)Nc1ccc2cc(C(=O)NO)sc2c1 [Compound 108] | 50 ± 11.3 | 442 | – | –
O=C(Cc1cccnc1)Nc1ccc2cc(C(=O)NO)sc2c1 [Compound 110] | 61 ± 15.5 | 833 ± 65 | – | –
O=C(CN1CCCCC1)Nc1ccc2cc(C(=O)NO)sc2c1 [Compound 115] | 38 | 306 ± 78.5 | – | –
O=C(CN1CCN(c2ccccc2Cl)CC1)Nc1ccc2cc(C(=O)NO)sc2c1 [Compound 119] | 36.6 ± 13.2 | 568 ± 227 | – | –
CC(C(=O)Nc1ccc2cc(C(=O)NO)sc2c1)c1ccccc1 (centres unmarked) [Compound 123] | 18 ± 5.6 | 206 ± 79.2 | – | –

Structure (SMILES) | IC50 [1, 3] [nM] | IC50 [2, 4] [nM] | IC50 ([1]; Table 2, thiophene backbone) [nM] | IC50 [2, 5] [nM]
O=C(NO)c1cc2ccc(NC(=O)C3(c4ccccc4)CC3)cc2s1 [Compound 126] | 125 ± 5.6 | 836 | – | –
O=C(NO)c1cc2ccc(NC(=O)C3(c4ccc(Cl)cc4)CCC3)cc2s1 [Compound 127] | 115 ± 9.8 | 935 | – | –
O=C(NC1CCCc2ccccc21)c1ccc2cc(C(=O)NO)sc2c1 (centres unmarked) [Compound 135] | – | 836 | – | –
O=C(NO)c1cc2cc(CNCc3ccccn3)ccc2s1 [Compound 142] | 258 ± 17 | 714 | – | –
O=C(NO)c1cc2cc(CNCCc3c[nH]c4ccccc34)ccc2s1 [Compound 145] | 151 ± 28.2 | 990 | – | –
O=C(NO)c1cc2cc(CNC3CCN(Cc4ccccc4)CC3)ccc2s1 [Compound 146] | 524 ± 102 | 891 | – | –
COc1ccccc1CNCc1ccc2sc(C(=O)NO)cc2c1 [Compound 147] | 75.5 ± 7.7 | 201 ± 59.3 | – | –
COc1cccc(CNCc2ccc3sc(C(=O)NO)cc3c2)c1 [Compound 148] | 100 ± 12.7 | 430 ± 132 | – | –
O=C(NO)c1cc2cc(CNCCc3ccccc3)ccc2s1 [Compound 151] | 203 ± 14.8 | 947 | – | –
O=C(NO)c1cc2cc(CNCc3ccc(Cl)cc3)ccc2s1 [Compound 153] | 124 ± 24 | 531 | – | –
O=C(NO)c1cc2cc(CNCCCc3ccccc3)ccc2s1 [Compound 154] | 163 ± 37.4 | 637 | – | –
O=C(NO)c1cc2cc(CNCCC(c3ccccc3)c3ccccc3)ccc2s1 [Compound 155] | 967 ± 215 | 390 | – | –
O=C(NO)c1cc2cc(CNCCCCc3ccccc3)ccc2s1 [Compound 156] | 275 ± 34.6 | 966 | – | –
COc1ccc(CNCc2ccc3sc(C(=O)NO)cc3c2)cc1 [Compound 162] | 110 ± 14.1 | 587 | – | –
O=C(NO)c1cc2cc(CNCC3CCCCC3)ccc2s1 [Compound 164] | 207 ± 38.1 | 545 ± 24 | – | –
O=C(CN(CC(=O)Nc1ccccc1)c1ccc2sc(C(=O)NO)cc2c1)Nc1ccccc1 [Compound 177] | 57.3 ± 18.5 | 259 ± 48.7 | – | –
O=C(CN(CC(=O)Nc1ccccc1)c1ccc2cc(C(=O)NO)sc2c1)Nc1ccccc1 [Compound 178] | 6.5 ± 0.7 | 200 ± 19.7 | – | –
CCC(C(=O)Nc1ccc2cc(C(=O)NO)sc2c1)c1ccccc1 (centres unmarked) [Compound 180] | 18.5 ± 2.1 | – | – | 140
CCC(C(=O)Nc1ccc2cc(C(=O)NO)sc2c1)c1ccccc1 (centres unmarked) [Compound 181] | 59.5 ± 3.5 | – | – | 528
COc1ccccc1CNCc1ccc2cc(C(=O)NO)sc2c1 [Compound 185] | 48.5 ± 6.3 | 90 | – | –
COc1cccc(CNCc2ccc3cc(C(=O)NO)sc3c2)c1 [Compound 186] | 55.5 ± 9.1 | 93 | – | –
COc1ccc(CNCc2ccc3cc(C(=O)NO)sc3c2)cc1 [Compound 187] | 23 ± 1.4 | 56 | – | –
O=C(NO)c1cc2ccc(CNCCc3c[nH]c4ccccc34)cc2s1 [Compound 188] | 82.5 ± 16.2 | 191 | – | –
CC(C)(C(=O)Nc1ccc2cc(C(=O)NO)sc2c1)c1ccccc1 [Compound 189] | 72 ± 14.1 | 493 | – | –
O=C(CCc1ccc(C(=O)NO)s1)Nc1nc2ccccc2s1 [Compound 197] | – | – | 134 ± 7.7 | –
O=C(NO)c1cc(-c2ccccc2)cs1 [Compound 199] | – | – | 9260 ± 1180 | –
